Data from patent US7288407B2, “Stable cytochrome P450 24 (CYP24) expressing cell line and methods and uses thereof” (Cytochroma, Inc., priority 2002, dated 2007).

Biological target: T1, CYP24 (Homo sapiens, UniProt Q07973)
T1 construct: The full-length CYP24 cDNA was amplified using one-step RT-PCR kit; expressed in transfected cells
T1 sequence (Q07973 36-514): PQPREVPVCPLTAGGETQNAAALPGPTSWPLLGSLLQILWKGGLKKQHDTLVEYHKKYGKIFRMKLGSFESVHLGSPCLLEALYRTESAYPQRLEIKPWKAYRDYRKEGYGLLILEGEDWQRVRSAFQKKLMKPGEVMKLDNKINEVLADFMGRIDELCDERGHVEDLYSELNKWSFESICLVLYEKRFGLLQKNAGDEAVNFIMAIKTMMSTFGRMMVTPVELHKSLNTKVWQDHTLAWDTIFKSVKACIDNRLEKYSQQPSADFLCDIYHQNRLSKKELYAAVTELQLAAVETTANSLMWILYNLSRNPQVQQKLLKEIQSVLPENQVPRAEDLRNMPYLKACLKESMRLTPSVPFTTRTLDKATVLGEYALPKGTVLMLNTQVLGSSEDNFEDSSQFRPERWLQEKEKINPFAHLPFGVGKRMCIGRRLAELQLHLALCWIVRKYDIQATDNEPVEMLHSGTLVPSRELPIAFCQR
Assay: CYP24 enzyme assay using stable CYP24-V79 cells
Type: cell-based
Settings: Bligh-Dyer extraction, organic phase from 3 hours analyzed by HPLC
Description: CYP24/V79 cells were suspended, counted, seeded on well plates and extracted using the Bligh-Dyer extraction method. […] To induce cells, media was removed and the cells washed with 1× PBS buffer. […] Next, a cell suspension was prepared at the day of assay by removing the medium and washing the cell with PBS. 2 ml tripsin/EDTA was added to the plate which was kept in 37° C. for 5 min. Next, 3 ml EDTA medium+1% FCS was added followed by transfer to a 50 ml tube. The plate was washed with 5 ml PBS and mixed. The mix was centrifuged (2,000 rpm, 5 min) and the suspended cells pelleted in DMEM medium+1% BSA. […] About 5 mL 1× PBS buffer was added to collect cells from the plate and then placed in a 50 mL tube followed by repetition with second cell line. About 5 mL 1× PBS buffer was added to further wash the plate and added to the original 50 mL tube. Tubes were centrifuged (2,000 rpm/800 g for 6 minutes) and the supernatant removed. […] The cells were counted via hemocytometer and density adjusted to 250,000 cells/150 μL (1.67 million/1 mL) and then 150 μL added to appropriately labeled wells of 48-well plate. […] The cells were counted and cell density was adjusted to 500,000/150 μL. […] The plate is counted in a scintillation counter. Enzyme activity was then calculated.

effect on CYP24 activity (inhibitor/activator): inhibitors
Structure (SMILES): CC[C@H]1OC(=O)[C@H](C)[C@@H](O[C@H]2C[C@@](C)(OC)[C@@H](O)[C@H](C)O2)[C@H](C)[C@@H](O[C@@H]2O[C@H](C)C[C@H](N(C)C)[C@H]2O)[C@](C)(O)C[C@@H](C)C(=O)[C@H](C)[C@@H](O)[C@]1(C)O [erythromycin]
